One may read the inhibition as the change of the read-out against control, counted positive when it falls.

Marks after values point to notes of the source that are not given here.

The values below come from patent US20190374536A1, “METHODS OF USING FASN INHIBITORS” (FORMA Therapeutics, Inc., priority 2016, published 2019).

Test [1] deals with HFD rat model. In words: High fat diet (HFD) fed rat model: steatosis, plasma/liver TG, plasma leptin. In kind it is in vivo. As to conditions: HFD rats, 5 mg/kg QD. The text has this: Steatosis is caused by the accumulation of triglycerides (TG) in the liver, and as such, decreases in TG may represent a potential marker for activity on steatosis. The obese phenotype of HFD model is dependent on the incorporation of high dietary fat and DNL-derived fat. […] The key endpoints of this study were to evaluate the relationship between dose schedule and exposure with changes in liver steatosis score and liver TG. For these studies, male SD rats (6-8 week old) were fed a high fat diet (D124942, Research Diets Inc.) for four weeks to develop the obese phenotype and then sorted into treatment groups (N=8) based on mean body weight. […] Rosiglitazone 5 mg/kg QD was included as a positive control. Plasma and serum samples were collected weekly throughout the study. After 28 days of treatment, animals were sacrificed and liver and plasma samples were collected. Livers were fixed in formalin, processed for H&E staining, and evaluated by a pathologist specializing in NASH.
Two HFD studies were conducted. […] The second HFD study investigated the endpoints of steatosis and liver and plasma markers of lipogenesis (including TG and FFA).

Test [2] has as its system HSD rat model. In words: High-sucrose diet (HSD) fed rat model: plasma/liver TG, plasma leptin. In kind it is in vivo. As to conditions: HSD rats, 5 mg/kg QD. The text has this:
A HSD represents an alternative experimental model for obesity and steatosis. In this model, 60-70% of the caloric intake is from simple carbohydrates, and thus, the primary source of increased TG is through DNL.
Male SD rats (6-8 week old) were fed a HSD (D10001, Research Diets Inc.) for six weeks to develop the obese phenotype and then sorted into treatment groups (N=8 each) based on mean body weight.

Test [3] relates to TH17 cells differentiated in-vitro. In words: TH17 differentiation assay: inhibition of IL-17 secretion. It is filed as cell-based. Also on record: activity: dose or concentration left out as unconfirmed. The note with it: Homo sapiens; for inhibition at 1 µM: IL-17 secretion; for activity: TH17 cells differentiated in-vitro, read-out: IL17 secretion (% of DMSO). The text has this: CD4+ T cells were isolated using CD4+ T cell isolation kit (Miltenyi Biotech), activated with CD3/CD28 microbeads and cultured for 7-10 days in the presence of IL-1β, IL-6, IL-21, I-23 and TGFβ and test compounds. Cells cultured with DMSO or without cytokines and/or microbeads were used as negative controls.
Read out: (1) At day 7-10, the supernatants were collected and tested for soluble 1-17. (2) Cells were also harvested and stained for intra-cellular IL-17A. (3) Cells were also stained separately by Annexin/PI for cell viability. (4) Pictures of cultures were taken for each condition.

Consider `CN(CCOc1ccc(CC2SC(=O)NC2=O)cc1)c1ccccn1` (stereo not shown) [Rosiglitazone], for which, in test [1] (Day 14), the “Plasma TG % Decrease of treatment group (mean) vs. vehicle treated HFD group (mean)” value turned out to be 52.5% and the “Plasma TG Raw Data (Mean ± SEM)” value was 0.48 ± 0.02 mmol/L. In addition, in test [1] (Day 26), the “Plasma TG % Decrease of treatment group (mean) vs. vehicle treated HFD group (mean)” value amounted to 60.0% and the “Plasma TG Raw Data (Mean ± SEM)” value worked out at 0.46 ± 0.05 mmol/L. Besides, in test [1] (Day 28), the “Liver TG % Decrease of treatment group (mean) vs. vehicle treated HFD group (mean)” value is on record as 70.0%, the “Liver TG Raw Data (Mean ± SEM)” value is 17.2 ± 0.8 µmol/g and the “Plasma Leptin (Mean ± SEM)” value is 16.0 ± 1.2 ng/mL. Further, in test [2] (Day 14), the “Plasma TG % Decrease of treatment group (mean) vs. vehicle treated HSD group (mean)” value came to 60.6% and the “Plasma TG Raw Data (Mean ± SEM)” value came out at 1.07 ± 0.10 mmol/L. For the same compound, in test [2] (Day 26), the “Plasma TG % Decrease of treatment group (mean) vs. vehicle treated HSD group (mean)” value is 62.3% and the “Plasma TG Raw Data (Mean ± SEM)” value is given as 1.24 ± 0.17 mmol/L. In addition, in test [2] (Day 28), the “Liver TG % Decrease of treatment group (mean) vs. vehicle treated HSD group (mean)” value was 41.2 * %, the “Liver TG Raw Data (Mean ± SEM)” value came out at 8.5 ± 1.5 µmol/g and the “Plasma Leptin (Mean ± SEM)” value is 12.6 ± 2.5 ng/mL.

`O=C(c1ccc(-c2nc3ccc(F)cc3o2)cc1)N1CCN(C(=O)C2(O)CC2)CC1` [compound 1]: in test [3], the inhibition at 1 µM is 46% and the activity amounted to 54%.

With `O=C(c1ccc(-c2nc3ccc(Cl)cc3o2)cc1)N1CCN(C(=O)C2(O)CC2)CC1` [compound 2], in test [3], the inhibition at 1 µM is 79% and the activity was 21%.

With `O=C(c1ccc(-c2cc(Cl)ccc2F)cc1)N1CCN(C(=O)C2(O)CC2)CC1` [compound 3], in test [3], the inhibition at 1 µM came to 75% and the activity amounted to 25%.

With `Cn1cnc2cc(-c3ccc(C(=O)N4CCN(C(=O)C5(O)CC5)CC4)c(F)c3)ccc21` [compound 4], in test [3], 1 µM produced 85% inhibition and the activity turned out to be 15%.

Consider `Cn1ncc2ccc(-c3ccc(C(=O)N4CCN(C(=O)C5(N)CC5)CC4)cc3)cc21` [compound 5], for which, in test [3], testing at 1 µM gave an inhibition of 74% and the activity is 26%.

In the case of `O=C(c1ccc(-c2nc3ccc(F)cc3o2)cc1F)N1CCN(C(=O)C2(O)CC2)CC1` [compound 6], in test [3], the inhibition at 1 µM stood at 53% and the activity is 47%.

`C[C@@H]1CN(C(=O)c2ccc(-c3nc4ccc(F)cc4o3)cc2)CCN1C(=O)C1(O)CC1` [compound 7]: in test [3], at 1 µM the inhibition was 66% and the activity turned out to be 34%.

For `C[C@H]1CN(C(=O)c2ccc(-c3ccc4c(c3)ncn4C)cc2F)CCN1C(=O)C1(O)CC1` [compound 8], in test [3], testing at 1 µM gave an inhibition of 77% and the activity is 23%.

Regarding `Cn1cnc2cc(-c3ccc(C(=O)N4CCN(C(=O)C5(O)CC5)CC4)cc3)ccc21` [compound 9], in test [3], the inhibition at 1 µM was found to be 76% and the activity was determined as 24%.

`C[C@H]1CN(C(=O)c2ccc(-c3nc4ccc(Cl)cc4o3)cc2)CCN1C(=O)C1(O)CC1` [compound 11]: in test [3], the inhibition at 1 µM was 67% and the activity was determined as 33%.
